Measurements taken from US20230382949A1 (HEPTARES THERAPEUTICS LIMITED, priority 2020, published 2023).
Read-outs that look alike come from different tables or passages of the source. Starred links: 1 amine or outer side, 2 acyl side, 3 side chain; linkers in the order of their positions; H or OH if unused. Non-standard residues stand in square brackets, D forms with d. Residues, ends and D or L forms follow the SMILES beside them. *: point of attachment. Ala(piperidin-4-yl) = O=C([C@H](CC1CCN([*:3])CC1)N[*:1])[*:2]; Malonyl(2,2-Me2,histaminyl) = CC(C)(C(=O)NCCc1cnc[nH]1)C(=O)*; dNMeBip = CN[C@H](Cc1ccc(-c2ccccc2)cc1)C(=O)O; dBip = N[C@H](Cc1ccc(-c2ccccc2)cc1)C(=O)O; Oic = O=C(O)[C@@H]1C[C@@H]2CCCC[C@@H]2N1; Phe(4-Br) = N[C@@H](Cc1ccc(Br)cc1)C(=O)O; X4 = CC(C)(C(=O)NCCCc1cnc[nH]1)C(=O)*; X5 = CC(C)(C(=O)NCc1c[nH]cn1)C(=O)*; hArg = N=C(N)NCCCC[C@H](N)C(=O)O; 3Pal = N[C@@H](Cc1cccnc1)C(=O)O; NMeQ = CN[C@@H](CCC(N)=O)C(=O)O; Pip = O=C(O)[C@@H]1CCCCN1; Nle = CCCC[C@H](N)C(=O)O; Aib = CC(C)(N)C(=O)O

How the values were obtained:
human Apelin receptor [1] = target: T1, human Apelin receptor (Homo sapiens, UniProt P35414); assay: cAMP accumulation assay (HTRF), functional agonism of human Apelin receptors; assay type: cell-based; conditions: for Emax: CHO
T1 sequence (P35414 1-380): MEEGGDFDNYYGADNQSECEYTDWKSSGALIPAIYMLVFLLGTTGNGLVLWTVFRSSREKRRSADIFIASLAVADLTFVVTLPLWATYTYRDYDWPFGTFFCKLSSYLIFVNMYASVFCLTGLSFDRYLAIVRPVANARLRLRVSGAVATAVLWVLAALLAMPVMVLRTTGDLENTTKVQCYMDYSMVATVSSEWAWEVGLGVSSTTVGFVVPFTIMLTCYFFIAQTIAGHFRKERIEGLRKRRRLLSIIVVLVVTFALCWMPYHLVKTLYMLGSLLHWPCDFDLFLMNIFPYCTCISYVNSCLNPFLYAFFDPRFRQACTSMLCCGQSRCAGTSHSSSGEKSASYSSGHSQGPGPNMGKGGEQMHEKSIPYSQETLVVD
Description: cAMP functional assay. cAMP production was quantified using the Homogeneous Time-Resolved Fluorescence (HTRF) cAMP dynamic-2 assay (Cisbio, France).

human Apelin receptor [2] = target: T2, human Apelin receptor (Homo sapiens, UniProt P35414); assay: β-arrestin accumulation assay, functional agonism of human Apelin receptors; assay type: cell-based
T2 construct: host or cells: CHO-K1 cells
Method in brief: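 After 16 h at 37° C., cells were exposed to increasing agonist concentrations in serum-free medium for 90 min at 37° C. Detection reagent added for 60 min in the dark; receptor activation read by fluorescence and EC50 derived from concentration-response curves.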
T2 sequence (P32121 whole entry partner, one chain of several): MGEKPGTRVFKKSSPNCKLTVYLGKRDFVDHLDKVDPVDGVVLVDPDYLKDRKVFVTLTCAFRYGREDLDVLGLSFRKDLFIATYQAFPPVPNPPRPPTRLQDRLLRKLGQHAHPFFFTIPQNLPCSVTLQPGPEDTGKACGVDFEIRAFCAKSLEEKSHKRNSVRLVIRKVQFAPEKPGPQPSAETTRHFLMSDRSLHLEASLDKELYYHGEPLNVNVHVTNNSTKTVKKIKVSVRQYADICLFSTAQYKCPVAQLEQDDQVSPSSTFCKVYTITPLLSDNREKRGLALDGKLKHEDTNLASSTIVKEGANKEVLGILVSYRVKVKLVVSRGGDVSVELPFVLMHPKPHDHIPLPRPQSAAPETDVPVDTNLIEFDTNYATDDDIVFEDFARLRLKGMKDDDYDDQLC

[3] = Human Apelin agonist cAMP assay, CHO cells stably expressing the human Apelin receptor, 3 uM forskolin
[4] = pEC50, Human Apelin agonist cAMP assay, CHO cells stably expressing the human Apelin receptor, 3 uM forskolin

| Emax (human Apelin receptor [1]; read-out: Emax) | EC50 (human Apelin receptor [1]; read-out: pEC50 (converted)) | EC50 (human Apelin receptor [2]) | Compound | Emax (human Apelin receptor [1]; [3]) | EC50 (human Apelin receptor [1]; [4]) |
| --- | --- | --- | --- | --- | --- |
| 79.2% | 31.6 nM | > 10000 nM | CC(C)C[C@H](NC(=O)[C@@H](CCCNC(=N)N)NC(=O)[C@@H]1CCCN1C(=O)[C@H](CCCCNC(=N)N)NC(=O)[C@H](CCC(N)=O)NC(=O)C(C)(C)C(=O)NCc1c[nH]cn1)C(=O)NC(C)(C)C(=O)N[C@@H](Cc1c[nH]cn1)C(=O)N[C@@H](CC1CCNCC1)C(=O)NCC(=O)N1[C@H](C(=O)N[C@@H](Cc2ccc(Br)cc2)C(=O)N2CCC[C@H]2C(=O)N[C@H](Cc2ccc(-c3ccccc3)cc2)C(=O)O)C[C@@H]2CCCC[C@@H]21 [Example 53] (X5-Q[hArg]P[dR]L[Aib]H[Ala(piperidin-4-yl)]G[Oic][Phe(4-Br)]P[dBip]-OH) |  |  |
| 61.2% | 1.26 nM | > 10000 nM | CC(C)C[C@H](NC(=O)[C@@H](CCCNC(=N)N)NC(=O)[C@@H]1CCCCN1C(=O)[C@H](CCCCNC(=N)N)NC(=O)[C@H](CCC(N)=O)NC(=O)C(C)(C)C(=O)NCCc1cnc[nH]1)C(=O)NC(C)(C)C(=O)N[C@@H](Cc1c[nH]cn1)C(=O)N[C@@H](CC1CCNCC1)C(=O)N[C@@H](C)C(=O)N1[C@H](C(=O)N[C@@H](Cc2ccc(Br)cc2)C(=O)N2CCC[C@H]2C(=O)N[C@H](Cc2ccc(-c3ccccc3)cc2)C(=O)O)C[C@@H]2CCCC[C@@H]21 [Example 54] ({Malonyl(2,2-Me2,histaminyl)}-Q[hArg][Pip][dR]L[Aib]H[Ala(piperidin-4-yl)]A[Oic][Phe(4-Br)]P[dBip]-OH) |  |  |
| 85.9% | 12.6 nM | > 10000 nM | CC(C)C[C@H](NC(=O)[C@@H](CCCNC(=N)N)NC(=O)[C@@H]1CCCCN1C(=O)[C@H](CCCNC(=N)N)NC(=O)[C@H](CCC(N)=O)NC(=O)C(C)(C)C(=O)NCCc1cnc[nH]1)C(=O)NC(C)(C)C(=O)N[C@@H](Cc1c[nH]cn1)C(=O)N[C@@H](CC1CCNCC1)C(=O)NCC(=O)N1[C@H](C(=O)N[C@@H](Cc2ccc(Br)cc2)C(=O)N2CCC[C@H]2C(=O)N[C@H](Cc2ccc(-c3ccccc3)cc2)C(=O)O)C[C@@H]2CCCC[C@@H]21 [Example 55] ({Malonyl(2,2-Me2,histaminyl)}-QR[Pip][dR]L[Aib]H[Ala(piperidin-4-yl)]G[Oic][Phe(4-Br)]P[dBip]-OH) |  |  |
| 68.1% | 20 nM | > 10000 nM | CC(C)C[C@H](NC(=O)[C@@H](CCCNC(=N)N)NC(=O)[C@@H]1CCCCN1C(=O)[C@H](CCCCNC(=N)N)NC(=O)[C@H](CCC(N)=O)NC(=O)C(C)(C)C(=O)NCCc1cnc[nH]1)C(=O)NC(C)(C)C(=O)N[C@@H](Cc1cccnc1)C(=O)N[C@@H](CC1CCNCC1)C(=O)NCC(=O)N1[C@H](C(=O)N[C@@H](Cc2ccc(Br)cc2)C(=O)N2CCC[C@H]2C(=O)N[C@H](Cc2ccc(-c3ccccc3)cc2)C(=O)O)C[C@@H]2CCCC[C@@H]21 [Example 56] ({Malonyl(2,2-Me2,histaminyl)}-Q[hArg][Pip][dR]L[Aib][3Pal][Ala(piperidin-4-yl)]G[Oic][Phe(4-Br)]P[dBip]-OH) |  |  |
| 59% | 50.1 nM | > 10000 nM | CCCC[C@H](NC(=O)[C@@H]1C[C@@H]2CCCC[C@@H]2N1C(=O)CNC(=O)[C@H](CC1CCNCC1)NC(=O)[C@H](Cc1ccc(Br)cc1)NC(=O)C(C)(C)NC(=O)[C@H](CC(C)C)NC(=O)[C@@H](CCCNC(=N)N)NC(=O)[C@@H]1CCCN1C(=O)[C@H](CCCCNC(=N)N)NC(=O)[C@H](CCC(N)=O)NC(=O)C(C)(C)C(=O)NCCc1cnc[nH]1)C(=O)N1CCC[C@H]1C(=O)N[C@H](Cc1ccc(-c2ccccc2)cc1)C(=O)O [Example 60] ({Malonyl(2,2-Me2,histaminyl)}-Q[hArg]P[dR]L[Aib][Phe(4-Br)][Ala(piperidin-4-yl)]G[Oic][Nle]P[dBip]-OH) |  |  |
| 31.7% | 100 nM | > 10000 nM | CCCC[C@H](NC(=O)[C@@H]1C[C@@H]2CCCC[C@@H]2N1C(=O)[C@H](C)NC(=O)[C@H](CC1CCNCC1)NC(=O)[C@H](Cc1ccc(Br)cc1)NC(=O)C(C)(C)NC(=O)[C@H](CC(C)C)NC(=O)[C@@H](CCCNC(=N)N)NC(=O)[C@@H]1CCCCN1C(=O)[C@H](CCCCNC(=N)N)NC(=O)[C@H](CCC(N)=O)NC(=O)C(C)(C)C(=O)NCCc1cnc[nH]1)C(=O)N1CCC[C@H]1C(=O)N[C@H](Cc1ccc(-c2ccccc2)cc1)C(=O)O [Example 62] ({Malonyl(2,2-Me2,histaminyl)}-Q[hArg][Pip][dR]L[Aib][Phe(4-Br)][Ala(piperidin-4-yl)]A[Oic][Nle]P[dBip]-OH) |  |  |

| Compound | Emax (human Apelin receptor [1]; read-out: Emax) | EC50 (human Apelin receptor [1]; read-out: pEC50 (converted)) | EC50 (human Apelin receptor [2]) | Emax (human Apelin receptor [1]; [3]) | EC50 (human Apelin receptor [1]; [4]) |
| --- | --- | --- | --- | --- | --- |
| CC(C)C[C@H](NC(=O)[C@@H](CCCNC(=N)N)NC(=O)[C@@H]1CCCN1C(=O)[C@H](CCCCNC(=N)N)NC(=O)[C@H](CCC(N)=O)NC(=O)C(C)(C)C(=O)NCCc1cnc[nH]1)C(=O)NC(C)(C)C(=O)N[C@@H](Cc1cnc[nH]1)C(=O)N[C@@H](CC1CCNCC1)C(=O)NCC(=O)N1[C@H](C(=O)N[C@@H](Cc2ccc(Br)cc2)C(=O)N2CCC[C@H]2C(=O)N(C)[C@H](Cc2ccc(-c3ccccc3)cc2)C(=O)O)C[C@@H]2CCCC[C@@H]21 [Example 57] ({Malonyl(2,2-Me2,histaminyl)}-Q[hArg]P[dR]L[Aib]H[Ala(piperidin-4-yl)]G[Oic][Phe(4-Br)]P[dNMeBip]-OH) |  |  | > 10000 nM | 45.9% | 63.1 nM |
| CC(C)C[C@H](NC(=O)[C@@H](CCCNC(=N)N)NC(=O)[C@@H]1CCCN1C(=O)[C@H](CCCCNC(=N)N)NC(=O)[C@H](CCC(N)=O)N(C)C(=O)C(C)(C)C(=O)NCCc1cnc[nH]1)C(=O)NC(C)(C)C(=O)N[C@@H](Cc1c[nH]cn1)C(=O)N[C@@H](CC1CCNCC1)C(=O)NCC(=O)N1[C@H](C(=O)N[C@@H](Cc2ccc(Br)cc2)C(=O)N2CCC[C@H]2C(=O)N[C@H](Cc2ccc(-c3ccccc3)cc2)C(=O)O)C[C@@H]2CCCC[C@@H]21 [Example 58] ({Malonyl(2,2-Me2,histaminyl)}-[NMeQ][hArg]P[dR]L[Aib]H[Ala(piperidin-4-yl)]G[Oic][Phe(4-Br)]P[dBip]-OH) |  |  | > 100000 nM | 33% | 794 nM |
| CCCC[C@H](NC(=O)[C@@H]1C[C@@H]2CCCC[C@@H]2N1C(=O)CNC(=O)[C@H](CC1CCNCC1)NC(=O)[C@H](Cc1c[nH]cn1)NC(=O)[C@@H](C)NC(=O)[C@H](CC(C)C)NC(=O)[C@H](CCCNC(=N)N)NC(=O)[C@@H]1CCCN1C(=O)[C@H](CCCNC(=N)N)NC(=O)[C@H](CCC(N)=O)NC(=O)C(C)(C)C(=O)NCCc1cnc[nH]1)C(=O)N1CCC[C@H]1C(=O)N[C@H](Cc1ccc(-c2ccccc2)cc1)C(=O)O [Example 59] ({Malonyl(2,2-Me2,histaminyl)}-QRPRL[dA]H[Ala(piperidin-4-yl)]G[Oic][Nle]P[dBip]-OH) |  |  | > 10000 nM | 48.1% | 100 nM |
| CC(C)C[C@H](NC(=O)[C@@H](CCCNC(=N)N)NC(=O)[C@@H]1CCCN1C(=O)[C@H](CCCCNC(=N)N)NC(=O)[C@H](CCC(N)=O)NC(=O)C(C)(C)C(=O)NCCCc1cnc[nH]1)C(=O)NC(C)(C)C(=O)N[C@@H](Cc1c[nH]cn1)C(=O)N[C@@H](CC1CCNCC1)C(=O)NCC(=O)N1[C@H](C(=O)N[C@@H](Cc2ccc(Br)cc2)C(=O)N2CCC[C@H]2C(=O)N[C@H](Cc2ccc(-c3ccccc3)cc2)C(=O)O)C[C@@H]2CCCC[C@@H]21 [Example 61] (X4-Q[hArg]P[dR]L[Aib]H[Ala(piperidin-4-yl)]G[Oic][Phe(4-Br)]P[dBip]-OH) |  |  | > 100000 nM | 41.8% | 10 nM |
